# ChEMBL document CHEMBL5149994, “Anticancer potential of indirubins in medicinal chemistry: Biological activity, structural modification, and structure-activity relationship” (Eur J Med Chem, 2021)
# Assays:
# [1] = system: SNU-638; assay: Antiproliferative activity against human SNU-638 cells assessed as cell growth inhibition measured after 24 hrs by MTT assay; type: functional, cell-based; conditions: SNU-638, 24 h
# [2] = system: A549; assay: Antiproliferative activity against human A549 cells assessed as cell growth inhibition measured after 24 hrs by MTT assay; type: functional, cell-based; conditions: A549, 24 h
# [3] = system: HT-1080; assay: Antiproliferative activity against human HT-1080 cells assessed as cell growth inhibition measured after 24 hrs by MTT assay; type: functional, cell-based; conditions: HT-1080, 24 h
# [4] = Cytotoxicity against rat RK3E cells harboring RAS assessed as cell growth inhibition measured after 24 hrs by MTT assay; type: toxicity, cell-based
# [5] = Kinetic solubility of compound in PBS at pH 7.4; type: physicochemical; conditions: read-out: Kinetic_solubility
# [6] = Inhibition of GST-tagged recombinant human CDK2/cyclin E expressed in Sf9 cells incubated for 10 mins in presence of [33P]-gamma ATP and ATP by scintillation counter method
# [7] = system: MCF7; assay: Cytotoxicity against human MCF7 cells assessed as cell growth inhibition measured after 4 days by crystal violet staining based assay; type: functional; conditions: MCF7, 96 h
# [8] = system: NCI-H157; assay: Cytotoxicity against human NCI-H157 cells assessed as cell growth inhibition at 100 uM by calcein-AM staining based flow cytometry analysis relative to control; type: functional; design: scale not given: the % may be the effect or the level left
# [9] = system: HL-60; assay: Cytotoxicity against human HL-60 cells assessed as cell growth inhibition; type: functional, cell-based
# [10] = system: HepG2; assay: Antiproliferative activity against human HepG2 cells assessed as cell growth inhibition; type: functional, cell-based
# [11] = system: SW480; assay: Antiproliferative activity against human SW480 cells assessed as cell growth inhibition; type: functional, cell-based
# [12] = system: HL-60; assay: Antiproliferative activity against human HL-60 cells assessed as cell growth inhibition; type: functional, cell-based
# [13] = Antiproliferative activity against human Lu1 cells assessed as cell growth inhibition; type: functional, cell-based
# [14] = system: SW480; assay: Antiproliferative activity against human SW480 cells assessed as cell growth inhibition measured after 72 hrs by MTT assay; type: functional, cell-based; conditions: SW480, 72 h
# [15] = system: HL-60; assay: Antiproliferative activity against human HL-60 cells assessed as cell growth inhibition measured after 72 hrs by MTT assay; type: functional, cell-based; conditions: HL-60, 72 h
# [16] = Antiproliferative activity against human Lu1 cells assessed as cell growth inhibition measured after 72 hrs by MTT assay; type: functional, cell-based; conditions: Lu1, 72 h
# [17] = system: HepG2; assay: Antiproliferative activity against human HepG2 cells assessed as cell growth inhibition measured after 72 hrs by MTT assay; type: functional, cell-based; conditions: HepG2, 72 h
# [18] = system: MV4-11; assay: Cytotoxicity in human MV4-11 cells assessed as cell growth inhibition incubated for 48 hrs by propidium iodide staining based flow cytometry assay; type: functional
# [19] = target: CDK2/Cyclin A2 (Homo sapiens, UniProt P24941); assay: Inhibition of CDK2/cyclin A (unknown origin); type: protein-complex assay
# [20] = system: SW480; assay: Antiproliferative activity against human SW480 cells assessed as cell growth inhibition measured after 96 hrs by MTT assay; type: functional, cell-based; conditions: SW480, 96 h
# [21] = system: CH1; assay: Antiproliferative activity against human CH1 cells assessed as cell growth inhibition measured after 96 hrs by MTT assay; type: functional, cell-based; conditions: CH1, 96 h
# [22] = system: A549; assay: Antiproliferative activity against human A549 cells assessed as cell growth inhibition measured after 96 hrs by MTT assay; type: functional, cell-based; conditions: A549, 96 h
# [23] = system: U-87 MG; assay: Cytotoxicity against human U87 cells assessed as cell growth inhibition measured after 24 hrs by MTT assay
# [24] = system: HL-60; assay: Cytotoxicity against human HL-60 cells assessed as cell growth inhibition measured after 24 hrs by MTT assay; conditions: HL-60, 24 h, read-out: LC50
# [25] = system: HeLa; assay: Cytotoxicity against human HeLa cells assessed as cell growth inhibition measured after 24 hrs by SRB assay
# [26] = Inhibition of CDK2/cyclin E (unknown origin); design: species or system Homo sapiens
# [27] = system: U-118-MG; assay: cells; conditions: Homo sapiens, 24 h
# Description: Cytotoxicity against human U-118-MG cells assessed as cell growth inhibition measured after 24 hrs by MTT assay
# [28] = system: DU-145; assay: Antiproliferative activity against human DU-145 cells assessed as cell growth inhibition by MTT assay; type: functional, cell-based
# [29] = target: Indoleamine 2,3-dioxygenase 1 (Homo sapiens, UniProt P14902); assay: Inhibition of IDO1 in human Hela cells assessed as reduction in N-formylkynurenine formation incubated for 30 mins; type: cell-based
# Indoleamine 2,3-dioxygenase 1, sequence (P14902 whole entry): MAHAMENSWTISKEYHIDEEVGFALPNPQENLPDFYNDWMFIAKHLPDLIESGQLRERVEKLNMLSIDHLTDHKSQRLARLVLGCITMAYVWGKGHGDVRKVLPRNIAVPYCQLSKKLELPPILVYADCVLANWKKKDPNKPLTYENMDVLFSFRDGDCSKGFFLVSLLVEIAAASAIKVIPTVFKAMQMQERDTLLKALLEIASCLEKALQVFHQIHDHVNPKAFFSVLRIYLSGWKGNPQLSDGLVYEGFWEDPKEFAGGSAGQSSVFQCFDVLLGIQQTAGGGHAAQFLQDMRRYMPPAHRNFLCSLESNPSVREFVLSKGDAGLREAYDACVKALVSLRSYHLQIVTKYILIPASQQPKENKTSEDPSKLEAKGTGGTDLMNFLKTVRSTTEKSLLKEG
# [30] = system: K562; assay: Antiproliferative activity against human K562 cells assessed as cell growth inhibition measured after 48 hrs by CCK-8 assay; type: functional, cell-based; conditions: K562, 48 h
# [31] = system: SK-MEL-147; assay: Cytotoxicity against human SK-MEL-147 cells assessed as cell growth inhibition measured after 24 hrs by WST-1 assay; type: functional, cell-based; conditions: SK-MEL-147, 24 h
# [32] = system: SK-MEL19; assay: Cytotoxicity against human SK-MEL19 cells assessed as cell growth inhibition measured after 24 hrs by WST-1 assay; type: functional, cell-based; conditions: SK-MEL19, 24 h
# [33] = Cytotoxicity against human SK-MEL-29 cells assessed as cell growth inhibition measured after 24 hrs by WST-1 assay; type: functional, cell-based; conditions: SK-MEL-29, 24 h
# [34] = system: SK-MEL-103; assay: Cytotoxicity against human SK-MEL-103 cells assessed as cell growth inhibition measured after 24 hrs by WST-1 assay; type: functional, cell-based; conditions: SK-MEL-103, 24 h
structure (smiles),measurement,setting,value
CC(C)(C)C(=O)Nc1ccc2c(c1)/C(=C1/Nc3ccccc3/C1=N\O)C(=O)N2,IC50,[1],6.5 µM
same,IC50,[2],6.4 µM
same,IC50,[3],4.2 µM
same,IC50 at 24 h,[4],6.4 µM
CN(C)S(=O)(=O)c1ccc2c(c1)/C(=C1/Nc3ccccc3/C1=N\O)C(=O)N2,solubility kinetic,[5],< 1 µg/mL
same,IC50,[6],40 nM
same,IC50,[7],400 nM
CN(C)CCN(C)S(=O)(=O)c1ccc2c(c1)/C(=C1/Nc3ccccc3C1=O)C(=O)N2,solubility kinetic,[5],12 µg/mL
same,IC50,[6],10 nM
same,IC50,[7],< 100 nM
CN(C)S(=O)(=O)c1ccc2c(c1)/C(=C1/Nc3ccccc3C1(C)O)C(=O)N2 (configuration not stated),solubility kinetic,[5],> 40 µg/mL
same,IC50,[6],70 nM
same,IC50,[7],700 nM
C[C@@H]1O[C@H](N2C(=O)/C(=C3\[Se]c4ccccc4C3=O)c3ccccc32)[C@H](O)[C@H](O)[C@H]1O,Activity,[8],16.7%
O=C1/C(=C2/C(=O)N(CCN3CCCC3)c3ccccc32)Nc2ccccc21,IC50,[9],3.56 µM
Cc1ccc(Nc2nnc(SCC(O)CN3C(=O)/C(=C4\Nc5ccccc5C4=O)c4ccccc43)s2)c(C)c1 (configuration not stated),IC50,[10],4.47 µM
same,IC50,[11],4190 nM
same,IC50,[12],4280 nM
same,IC50,[13],4.53 µM
CCCOc1cccc(/C=C/C(=O)c2ccc(OCCn3cc(CN4C(=O)/C(=C5\Nc6ccccc6\C5=N/O)c5ccccc54)nn3)cc2O)c1,IC50,[14],2910 nM
same,IC50,[15],1290 nM
same,IC50,[16],2500 nM
same,IC50,[17],2950 nM
COC(=O)c1ccc2c(c1)/C(=C1/Nc3ccccc3/C1=N\O)C(=O)N2,GI50,[18],54.1 nM
CC(C)N1C(=O)/C(=C2\Nc3ccccc3C2=O)c2cccnc21,IC50,[19],9.5 µM
NCCO/N=C1/C(=C2/C(=O)Nc3ccc(Br)cc32)Nc2ccc(O)cc21,IC50,[20],520 nM
same,IC50,[21],280 nM
same,IC50,[22],1000 nM
O=C1Nc2ccccc2/C1=C1/Nc2ccccc2C1=O [INDIRUBIN],IC50,[23],12.5 µM
same,CC50,[24],98.1 µg/mL
same,IC50,[25],40 µM
same,IC50,[26],7.5 µM
same,IC50,[27],12.5 µM
CCN1C(=O)/C(=C2\Nc3ccccc3C2=O)c2cccnc21,IC50,[19],1.2 µM
same,IC50,[28],40 µM
CCOc1ccccc1/C=C/C(=O)c1ccc(OCCn2cc(CN3C(=O)/C(=C4\Nc5ccccc5\C4=N/O)c4ccccc43)nn2)cc1O,IC50,[14],2540 nM
same,IC50,[15],980 nM
same,IC50,[16],1300 nM
same,IC50,[17],2010 nM
Cc1cn(C2CC(n3cc(COCCOCCOCCN4C(=O)/C(=C5\Nc6ccccc6C5=O)c5ccccc54)nn3)C(CO)O2)c(=O)[nH]c1=O (configuration not stated),IC50,[29],54.7 µM
same,IC50,[30],34.2 µM
O=C1CCC(N2C(=O)c3cccc(-n4cc(COCCOCCOCCN5C(=O)/C(=C6\Nc7ccccc7C6=O)c6ccccc65)nn4)c3C2=O)C(=O)N1 (configuration not stated),IC50,[29],33.9 µM
same,IC50,[30],42.2 µM
CN1C(=O)/C(=C2\Nc3ccc(Cl)cc3\C2=N/O)c2cccnc21,IC50,[28],1.8 µM
O=C1Nc2ccc([N+](=O)[O-])cc2/C1=C1/Nc2ccccc2/C1=N\O,IC50 at 24 h,[4],1 µM
C=CCC1(O)/C(=C2/C(=O)Nc3ccc(S(=O)(=O)N(C)C)cc32)Nc2ccccc21 (configuration not stated),solubility kinetic,[5],31 µg/mL
same,IC50,[6],90 nM
same,IC50,[7],200 nM
O=C1/C(=C2/C(=O)N(CC(O)CSc3nnc(Nc4ccccc4)s3)c3ccccc32)Nc2ccccc21 (configuration not stated),IC50,[10],1.9 µM
same,IC50,[11],1650 nM
same,IC50,[12],1350 nM
same,IC50,[13],2.21 µM
CN(C)CCN1C(=O)/C(=C2\Nc3ccccc3C2=O)c2ccccc21,IC50,[9],4.45 µM
O=C1/C(=C2/C(=O)N([C@H]3O[C@H](CO)[C@@H](O)[C@H](O)[C@@H]3O)c3ccccc32)Sc2ccccc21,IC50,[31],4.28 µM
same,IC50,[32],5.81 µM
same,IC50,[33],3.96 µM
same,IC50,[34],6.69 µM
